These results are taken from patent EP2303911B1, “A SYNTHETIC PEPTIDE CONSISTING OF BONE FORMING PEPTIDE 2(BFP 2) FOR STIMULATING OSTEOBLAST DIFFERENTIATION, AND PHARMACEUTICAL COMPOSITION COMPRISING THE SYNTHETIC PEPTIDE” (Industry Foundation Of Chonnam National University, priority 2008, dated 2012).

The subject of this data set is cells. As to the kind of experiment: MTT assay for cytotoxicity. The format is cell-based. Particulars: within a range of used concentrations, FIG. 3. For orientation: Tetrazolium dyes change colour on reduction, which living cells bring about.

No end group written: not given here.

As for “VEHDKEFFHPRYHHR [BFP 2, Val-Glu-His-Asp-Lys-Glu-Phe-Phe-His-Pro-Arg-Tyr-His-His-Arg]”, the cytotoxicity result was “not toxic to cells”.
